Experimental data: ChEMBL document CHEMBL1142430, “Acremine G, dimeric metabolite from cultures of Acremonium byssoides A20” (J Nat Prod, 2008)
pIC50: −log10 of the molar value.

Key:
Plasmopara viticola = test: Inhibition of germination of sporangia of Plasmopara viticola at 1 mM; type: functional
NCI-H460 = test: Cytotoxicity against human H460 cells; type: functional, cell-based

Compound CC1=CC2c3cc(O)c(C)cc3OC3(C1)C(=O)C(C)=CC(=O)C23/C=C/C(C)(C)O (racemic) has an inhibition at 1000 µM (Plasmopara viticola) of 72.5% and a pIC50 (NCI-H460) of 4.32.

With CC(C)(O)/C=C/C1=CC(=O)[C@](C)(O)C[C@@H]1O [ACREMINE A] the inhibition at 1000 µM (Plasmopara viticola) was 58.2% and the pIC50 (NCI-H460) was under 4.00.

CC(C)(O)/C=C/C1=CC(=O)[C@](C)(O)CC1=O [ACREMINE B] was tested, and the inhibition at 1000 µM (Plasmopara viticola) was 57.7% and the pIC50 (NCI-H460) was 4.44.
